Assay results reported in US10463659B2, “Multi-arm polymer prodrugs” (priority 2003, dated 2019).

What was measured:
[1] = DU-145 prostate tumor xenograft, PEG-docetaxel vs docetaxel; assay type: in vivo, mice; conditions: NCr nu/nu, mouse, in vivo, intravenous; DU-145 study, q7 d×2; read-out: tolerated dose (maximum tolerated dose)
DU-145 prostate tumors = assay: as above; assay type: in vivo, mice; conditions: DU-145, two doses (q7 d×2)
in vivo = conditions: NCr nu/nu, mouse
From the text: Human NCl-H460 lung tumors (30 to 40 fragments of each) were implanted subcutaneously in the mice (Charles Rivers Labs: NCr nu/nu) near the right axillary area.
The animals were randomized into groups in a manner such that the median tumor weights on the first day of treatment were as close to each other as possible.
The mice received 1 or 2 intravenous doses of test compound or vehicle (saline).
The animals were weighed and the tumors measured twice weekly after administration of the first injection. The tumor volume was measured by caliper measurements (mm) and using the formula of an ellipsoid sphere: L×W^2/2=mm^3, where L and W refer to the larger and smaller perpendicular dimensions collected at each measurement. This formula was also used to calculate tumor weight assuming unit density (1 mm^3=1 mg).
Any animal found moribund or any animal whose tumor reached 4000 mg, ulcerated or was sloughed off was euthanized prior to study termination.

[2] = PK/PD study in NCl-H460 lung tumor model (plasma and tumor AUC, t½); conditions: Day 1 AUC
MCF-7 breast tumor cells = assay: MCF-7 breast tumor xenograft, 4-arm-PEG-gly-irino-20K vs irinotecan; assay type: in vivo, Female athymic (Nu:Nu) mice; conditions: for Days to 4 Times Tumor Size: median; for Tumor Regression Complete / Tumor Regression Partial: n=10
Procedure: Female athymic (Nu:Nu) mice were injected subcutaneously with MCF-7 breast tumor cells and the tumors were allowed to reach a median volume of 75 mm^3. […] The control group received normal saline. The animals were weighed and tumors were measured twice weekly after administration of the first drug injection.

[3] = test system: Human HT29 colon tumor xenografts; assay: HT29 colon tumor xenograft, anti-tumor activity (Examples 2 and 6); conditions: HT29 colon tumors, 3 doses; for delay in tumor growth (anti-tumor activity) compared to the control: 60 mg/kg IV every 4 days
Procedure: Human HT29 colon tumor xenografts were subcutaneously implanted in athymic nude mice. After about two weeks of adequate tumor growth (100 to 250 mg), these animals were divided into different groups of ten mice each. […] Doses were administered intravenously, with one dose administered every 4 days for a total of 3 administered doses. The mice were observed daily and the tumors were measured with calipers twice a week.
Athymic nude mice were implanted subcutaneously with human cancer cell lines (lung cancer cell line NCl-H460, and colon cancer cell line HT-29) and the tumors allowed to grow to approximately 150 mg in size. The animals were divided into groups of ten mice each.
Tumor volume measurements were taken over a period of 60-80 days; tumor volumes were converted to tumor weight. Body weights were also measured over the same period to provide an indication of weight loss.

HT29 tumor fragments = assay: HT29 colorectal tumor xenograft, monotherapy study (Example 21); assay type: in vivo; conditions: for Tumor growth delay: HT29, all three doses tested (40, 60, or 90 mg/kg); for tolerability: all doses
From the text: HT29 tumor fragments were implanted into female, athymic nude mice in the monotherapy study. […]. Animals were weighed and tumor volumes measured twice weekly after the first drug injection in both studies.

[4] = PK/PD study in HT29 colon tumor model (plasma and tumor AUC, t½); conditions: 40 mg/kg IV q4d x3, Day 1 AUC
[5] = Exposure to SN-38 in HT-29 colorectal tumors in mice (FIG. 20); assay type: in vivo
Procedure: (§1) Additional illustrative in-vivo studies were carried out as described previously herein or in accordance with methods well-known to one having ordinary skill in the art.

neutrophils = assay: Neutropenia in dogs, 4-arm-PEG-GLY-IRINO-20K vs irinotecan (FIG. 21); assay type: in vivo
Procedure: as §1

[6] = rodents
[7] = Plasma levels of SN-38 in dogs (FIG. 24); assay type: in vivo
Procedure: as §1

[8] = Diarrhea episodes in dogs (FIG. 23); assay type: in vivo
Procedure: as §1

[9] = Toxicity: maximum tolerated dose and side-effects in rat and dog (FIG. 22); assay type: in vivo
Procedure: as §1

[10] = single dose, following PEG-Irinotecan administration

**Q.** With `CC(=O)O[C@@]12CO[C@@H]1C[C@H](O)[C@@]1(C)C(=O)[C@H](O)C3=C(C)[C@@H](OC(=O)[C@H](O)[C@@H](NC(=O)OC(C)(C)C)c4ccccc4)C[C@@](O)([C@@H](OC(=O)c4ccccc4)[C@H]21)C3(C)C` [docetaxel] as the compound, how does the MTD at 78 day [1] read?
**A.** The MTD at 78 day was ≤ 30 mg/kg.

**Q.** And the “time after which tumors did recover and grow” value (DU-145 prostate tumors)?
**A.** The value was 30 to 50 days.

**Q.** And the “anti-tumor effect on tumor growth” value (DU-145 prostate tumors; all 3 doses tested, 78 day observation period)?
**A.** Its value is “good activity”.

**Q.** What about the MTD (in vivo) of the same compound?
**A.** The MTD was ≤ 30 mg/kg.

**Q.** Which “Exposure (AUC) of Irinotecan, Plasma” value [2] does the source give for `CCc1c2c(nc3ccc(OC(=O)N4CCC(N5CCCCC5)CC4)cc13)-c1cc3c(c(=O)n1C2)COC(=O)[C@]3(O)CC` [irinotecan, 7-ethyl-10[4-(1-piperidino)-1-piperidino] carbonyloxy CPT, reference compound] here?
**A.** Its value is 0.5 µg·days/mL.

**Q.** What about the “Exposure (AUC) of SN38, Plasma” value [2] of the same compound?
**A.** Its value is 0.2 µg·days/mL.

**Q.** And the “Days to 4 Times Tumor Size” value (MCF-7 breast tumor cells; 20 mg/kg per dose x3)?
**A.** The value was 40.2 days.

**Q.** What about the “Tumor Regression Complete” value (MCF-7 breast tumor cells; 20 mg/kg per dose x3) of the same compound?
**A.** The value was 0.

**Q.** What about the “Tumor Regression Partial” value (MCF-7 breast tumor cells; 20 mg/kg per dose x3) of the same compound?
**A.** Its value is 0.

**Q.** And the “Median Duration” value (MCF-7 breast tumor cells; 40 mg/kg per dose x3)?
**A.** Its value is 42.0 days.

**Q.** What about the “Days to 4 Times Tumor Size” value (MCF-7 breast tumor cells; 40 mg/kg per dose x3) of the same compound?
**A.** Its value is 42.8 days.

**Q.** And the “Tumor Regression Complete” value (MCF-7 breast tumor cells; 40 mg/kg per dose x3)?
**A.** The value was 0.

**Q.** What about the “Tumor Regression Partial” value (MCF-7 breast tumor cells; 40 mg/kg per dose x3) of the same compound?
**A.** Its value is 1.

**Q.** And the “delay in tumor growth (anti-tumor activity) compared to the control” value [3]?
**A.** Its value is “significantly improved when compared to the control”.

**Q.** What about the Tumor growth delay (HT29 tumor fragments; q4 d×3) of the same compound?
**A.** Its Tumor growth delay is 0.3 to 1.6 days.

**Q.** And the tolerability (HT29 tumor fragments)?
**A.** The tolerability was “well tolerated”.

**Q.** What about the “Exposure (AUC) of Irinotecan, Plasma” value [4] of the same compound?
**A.** Its value is 0.3 µg·days/mL.

**Q.** And the “Exposure (AUC) of SN38, Plasma” value [4]?
**A.** Its value is 0.01 µg·days/mL.

**Q.** With “Pentaerythritolyl-4-Arm-(PEG-1-Methylene-2Oxo-Vinylamino Acetate Linked-Irinotecan)-20K [4-arm-PEG-GLY-IRINO-20K]” as the compound, how does the “exposure to SN-38 in colorectal tumors in comparison to irinotecan” value [5] read?
**A.** The value was “two to three times logarithmic increase”.

**Q.** And the “neutropenia compared to irinotecan at an equivalent dose” value (neutrophils)?
**A.** The value was “reduced neutropenia”.

**Q.** What about the “t½ of PEG-Irinotecan, species comparison” value (in vivo) of the same compound?
**A.** Its value is “Dog > rat =”.

**Q.** What about the “exposure to irinotecan and SN38 vs dosing with irinotecan per se” value (single dose, all species examined) of the same compound?
**A.** Its value is “sustained and greater exposure”.

**Q.** What about the “AUC of PEG-Irinotecan, species comparison” value [10] of the same compound?
**A.** The value was “mouse < rat < dog”.

**Q.** What about the “AUC of SN38, species comparison” value [10] of the same compound?
**A.** Its value is “mouse >> rat >> dog”.

**Q.** What about the “Cmax of PEG-Irinotecan, species comparison” value [10] of the same compound?
**A.** Its value is “mouse < rat < dog”.

**Q.** What about the “Cmax of SN38, species comparison” value [10] of the same compound?
**A.** Its value is “Mouse >> rat >> dog”.

**Q.** What about the “SN38 levels and AUCs after PEG-Irinotecan” value [6] of the same compound?
**A.** The value was “very high AUCs”.

**Q.** What about the “Exposure (AUC) of Irinotecan, Plasma” value [2] of the same compound?
**A.** The value was 2.0 µg·days/mL.

**Q.** What about the “Exposure (AUC) of PEG-Irinotecan, Plasma” value [2] of the same compound?
**A.** The value was 1213 µg·days/mL.

**Q.** What about the “Exposure (AUC) of PEG-SN38, Plasma” value [2] of the same compound?
**A.** Its value is 229 µg·days/mL.

**Q.** What about the “Exposure (AUC) of SN38, Plasma” value [2] of the same compound?
**A.** Its value is 2.6 µg·days/mL.

**Q.** And the “plasma levels of SN-38 compared to unmodified irinotecan” value [7]?
**A.** Its value is “elevated and sustained over a longer period of time”.

**Q.** And the “diarrhea episodes compared to irinotecan” value [8]?
**A.** Its value is “fewer diarrhea episodes”.

**Q.** What about the “maximum tolerated dose (MTD) compared to irinotecan” value ([9]; FIG. 22, rat and dog) of the same compound?
**A.** Its value is “significantly higher”.

**Q.** What about the “occurrence and/or extent and/or severity of side-effects such as neutropenia and diarrhea vs irinotecan” value ([9]; equivalent doses (FIG. 23)) of the same compound?
**A.** Its value is “reduced”.

**Q.** And the “T − C” value (MCF-7 breast tumor cells; 20 mg/kg per dose x3)?
**A.** Its value is >52 days.

**Q.** What about the “Days to 4 Times Tumor Size” value (MCF-7 breast tumor cells; 20 mg/kg per dose x3) of the same compound?
**A.** The value was >72 days.

**Q.** And the “Tumor Regression Complete” value (MCF-7 breast tumor cells; 20 mg/kg per dose x3)?
**A.** The value was 0.

**Q.** What about the “Tumor Regression Partial” value (MCF-7 breast tumor cells; 20 mg/kg per dose x3) of the same compound?
**A.** The value was 0.

**Q.** And the “Median Duration” value (MCF-7 breast tumor cells; 40 mg/kg per dose x3)?
**A.** The value was 22.0 days.

**Q.** And the “T − C” value (MCF-7 breast tumor cells; 40 mg/kg per dose x3)?
**A.** Its value is >52 days.

**Q.** What about the “Days to 4 Times Tumor Size” value (MCF-7 breast tumor cells; 40 mg/kg per dose x3) of the same compound?
**A.** The value was >72 days.

**Q.** And the “Tumor Regression Complete” value (MCF-7 breast tumor cells; 40 mg/kg per dose x3)?
**A.** Its value is 0.

**Q.** And the “Tumor Regression Partial” value (MCF-7 breast tumor cells; 40 mg/kg per dose x3)?
**A.** Its value is 1.

**Q.** And the “T − C” value (MCF-7 breast tumor cells; 60 mg/kg per dose x3)?
**A.** The value was >52 days.

**Q.** What about the “Days to 4 Times Tumor Size” value (MCF-7 breast tumor cells; 60 mg/kg per dose x3) of the same compound?
**A.** The value was >72 days.

**Q.** What about the “Tumor Regression Complete” value (MCF-7 breast tumor cells; 60 mg/kg per dose x3) of the same compound?
**A.** The value was 0.

**Q.** And the “Tumor Regression Partial” value (MCF-7 breast tumor cells; 60 mg/kg per dose x3)?
**A.** The value was 0.

**Q.** And the “T − C” value (MCF-7 breast tumor cells; 90 mg/kg per dose x3)?
**A.** The value was >52 days.

**Q.** And the “Tumor Regression Partial” value (MCF-7 breast tumor cells; 90 mg/kg per dose x3, <50% of size observed on Day 1)?
**A.** The value was 1.

**Q.** What about the “Median Duration” value (MCF-7 breast tumor cells; 90 mg/kg per dose x3, interval regressed tumor below 50% pretreatment size) of the same compound?
**A.** The value was 49.0 days.

**Q.** And the “Days to 4 Times Tumor Size” value (MCF-7 breast tumor cells; 90 mg/kg per dose x3)?
**A.** The value was >72 days.

**Q.** What about the “Tumor Regression Complete” value (MCF-7 breast tumor cells; 90 mg/kg per dose x3, unpalpable) of the same compound?
**A.** The value was 0.

**Q.** And the “T-C value compared with irinotecan treatment groups” value (MCF-7 breast tumor cells; all 4 dose levels, p<0.001)?
**A.** The value was “significantly higher”.

**Q.** And the tumor regrowth (MCF-7 breast tumor cells; any dose level (FIG. 15A))?
**A.** Its tumor regrowth is “No tumor regrowth occurred”.

**Q.** What about the “delay in tumor growth compared to unconjugated irinotecan” value ([3]; 60 mg/kg (irinotecan content) IV every 4 days) of the same compound?
**A.** Its value is “significantly better”.

**Q.** And the “delay in tumor growth (anti-tumor activity) compared to the control” value [3]?
**A.** The value was “significantly improved when compared to the control”.

**Q.** What about the “complete tumor regression (animals)” value (HT29 tumor fragments; HT29, 90 mg/kg dose, q4 d×3) of the same compound?
**A.** Its value is 3/10.

**Q.** What about the “partial tumor regression (animals)” value (HT29 tumor fragments; HT29, 90 mg/kg dose, q4 d×3) of the same compound?
**A.** The value was 1/10.

**Q.** What about the Tumor growth delay (HT29 tumor fragments; q4 d×3) of the same compound?
**A.** Its Tumor growth delay is 20.9 to 60.2 days.

**Q.** And the “tumor growth inhibition compared to irinotecan” value (HT29 tumor fragments; HT29 human colorectal tumor xenograft model)?
**A.** Its value is “more effectively than irinotecan”.

**Q.** What about the tolerability (HT29 tumor fragments) of the same compound?
**A.** Its tolerability is “well tolerated”.

**Q.** What about the “Exposure (AUC) of Irinotecan, Plasma” value [4] of the same compound?
**A.** The value was 1.5 µg·days/mL.

**Q.** What about the “Exposure (AUC) of PEG-Irinotecan, Plasma” value [4] of the same compound?
**A.** Its value is 2143 µg·days/mL.

**Q.** And the “Exposure (AUC) of PEG-SN38, Plasma” value [4]?
**A.** Its value is 784 µg·days/mL.

**Q.** And the “Exposure (AUC) of SN38, Plasma” value [4]?
**A.** The value was 5.8 µg·days/mL.
